Our source for the IC50 and Ki values is patent US20070082883A1, “HIV protease inhibitors” (THE BOARD OF TRUSTEES OF THE UNIVERSITY OF ILLINOIS, priority 2002, published 2007).

The target of the experiment is T1, HIV-1 protease (Human immunodeficiency virus type 1 group M subtype B, UniProt P04585).
T1 construct: made in house; host or cells: E. coli BL21 (dE3)pLysS, pET30a vector
Briefly: HIV-1 Protease Inhibition Assay. Type of experiment: biochemical. The following applies: fluorogenic substrate assay. An excerpt:
Assays of the dose-response effect of inhibitor compounds can be described as a curve expressing a degree of inhibition as a function of concentration. The curve theoretically passes through a point at which the concentration is sufficient to reduce activity of the HIV protease enzyme to a level that is 50% that of the difference between minimal and maximal enzyme activity in the assay.
HIV-1 Protease Inhibition Assay
The HIV-1 protease gene was subcloned into the pET30a vector (Novagen) and then transformed into BL21 (dE3)pLysS cells for protein expression. Protein expression and purification were followed according to Tang's procedure (Hong et al., Biochemistry, 1996, 35, 10627-10633). […] The inclusion body containing some bacterial proteins was thoroughly washed by using TRITON X-100, solubilized in […] and passed through the Q-sepharose column to remove the bacterial proteins which interfered with subsequent refolding steps. HIV-1 protease was refolded from the urea to an active form by dialysis. As a final step, gel filtration chromatography was used to remove impurities after refolding. Activities of purified HIV-1 protease were examined using a fluorogenic substrate, 2-aminobenzoyl-Thr-Ile-Nle-Phe(pNO2)-Gln-Arg-NH2 (Novabiochem). […] In the condition of So<<Km, v=Eo(kcat/Km)So, where Eo is the total enzyme concentration, and So is the substrate concentrate. […] Assays are carried out as described by Toth and Marshall (Toth et al., Int. J. Pept. Protein Res., 1990, 36, 544-50).
Broadly, the IC50 is the midpoint of a concentration-inhibition curve. High values mean a need for much substance, low ones inhibition by little substance. As a reminder, the Ki is a measure of affinity in units of concentration, obtained from inhibition or displacement. A low value points to a stronger hold on the target. Turning to `Cc1ccc(S(=O)(=O)N(CCN(C)C)C[C@@H](O)[C@H](Cc2ccccc2)NC(=O)O[C@H]2C[C@H]3CCO[C@H]3C2)cc1CO` [Compound 159], the midpoint of inhibition, the IC50, lay at 204 nM and the Ki is 63 nM.

Compound `Cc1ccc(S(=O)(=O)N(CCN(C)C)C[C@@H](O)[C@H](Cc2ccccc2)NC(=O)O[C@@H]2CO[C@@H]3OCCC[C@@H]32)cc1CO` [Compound 160] showed an IC50 of 231 nM and a Ki of 72 nM.

On to `Cc1ccc(S(=O)(=O)N(C[C@@H](O)[C@H](Cc2ccccc2)NC(=O)OC2CO[C@H]3OCCC23)C2CCOC2)cc1CO` (stereo partly shown) [Compound 161], for which the IC50 turned out to be 2 nM and the Ki was found to be 1.6 nM.

For `Cc1ccc(S(=O)(=O)N(C[C@@H](O)[C@H](Cc2ccccc2)NC(=O)OC2CC3CCO[C@@H]3C2)C2CCOC2)cc1CO` (stereo partly shown) [Compound 162], the IC50 was found to be 4.1 nM and the Ki is 1.3 nM.

The compound `CC(C)CN(C[C@@H](O)[C@H](Cc1ccccc1)NC(=O)OC(C)(C)C)S(=O)(=O)c1cncc([N+](=O)[O-])c1` [Compound 163] gave an IC50 of 115 nM and a Ki of 36 nM.

Take `CC(C)CN(C[C@@H](O)[C@H](Cc1ccccc1)NC(=O)OC(C)(C)C)S(=O)(=O)c1cncc(N)c1` [Compound 164]: the IC50 was 33 nM and the Ki was found to be 10 nM.

In turn, `CC(C)CN(C[C@@H](O)[C@H](Cc1ccccc1)NC(=O)OC1CO[C@H]2OCCC12)S(=O)(=O)c1cncc([N+](=O)[O-])c1` (stereo partly shown) [Compound 165] registered an IC50 of 3.5 nM and a Ki of 1 nM.

As for `CC(C)CN(C[C@@H](O)[C@H](Cc1ccccc1)NC(=O)OC1CO[C@H]2OCCC12)S(=O)(=O)c1cncc(N)c1` (stereo partly shown) [Compound 166], the IC50 worked out at 0.91 nM and the affinity, expressed as Ki, was 0.28 nM.

For the compound `CC(C)CN(C[C@@H](O)[C@H](Cc1ccccc1)NC(=O)OC1CC2CCO[C@@H]2C1)S(=O)(=O)c1cncc([N+](=O)[O-])c1` (stereo partly shown) [Compound 167], the IC50 came out at 4.5 nM and the affinity corresponds to a Ki of 1.4 nM.

Take `CC(C)CN(C[C@@H](O)[C@H](Cc1ccccc1)NC(=O)OC1CC2CCO[C@@H]2C1)S(=O)(=O)c1cncc(N)c1` (stereo partly shown) [Compound 168]: the IC50 worked out at 2.5 nM and the Ki was found to be 0.8 nM.

`CC(C)CN(C[C@@H](O)[C@H](Cc1ccccc1)NC(=O)O[C@H]1CCOC1)S(=O)(=O)c1cncc([N+](=O)[O-])c1` [Compound 169]: the IC50 came out at 7.1 nM and the Ki was 22 nM.

The compound `CC(C)CN(C[C@@H](O)[C@H](Cc1ccccc1)NC(=O)O[C@H]1CCOC1)S(=O)(=O)c1cncc(N)c1` [Compound 170] came in with an IC50 of 2.4 nM and a Ki of 0.74 nM.

Compound `CC(C)CN(C[C@@H](O)[C@H](Cc1ccccc1)NC(=O)O[C@H]1C[C@H]2CCO[C@H]2C1)S(=O)(=O)c1cncc([N+](=O)[O-])c1` [Compound 171] showed an IC50 of 14 nM and a Ki of 4.3 nM.

`CC(C)CN(C[C@@H](O)[C@H](Cc1ccccc1)NC(=O)O[C@H]1C[C@H]2CCO[C@H]2C1)S(=O)(=O)c1cncc(N)c1` [Compound 172] displayed an IC50 of 5.1 nM and a Ki of 1.6 nM.

For `CC(C)CN(C[C@@H](O)[C@H](Cc1ccccc1)NC(=O)OC1CC2CCO[C@@H]2C1)S(=O)(=O)c1ccc(F)c(N)c1` (stereo partly shown) [Compound 179], the IC50 stood at 6.4 nM and the Ki was 2 nM.

For `CN(C)CCN(C[C@@H](O)[C@H](Cc1ccccc1)NC(=O)OC1CC2CCO[C@@H]2C1)S(=O)(=O)c1ccc(F)c(N)c1` (stereo partly shown) [Compound 180], half-maximal inhibition (IC50) was put at 1500 nM and the affinity corresponds to a Ki of 472 nM.

In turn, `CC(C)CN(C[C@@H](O)[C@H](Cc1ccccc1)NC(=O)O[C@H]1CCOC1)S(=O)(=O)c1ccc(F)c([N+](=O)[O-])c1` [Compound 181] showed an IC50 of 145 nM and a Ki of 45 nM.

`CC(C)CN(C[C@@H](O)[C@H](Cc1ccccc1)NC(=O)O[C@H]1CCOC1)S(=O)(=O)c1ccc(F)c(N)c1` [Compound 182] had a half-inhibitory concentration (IC50) of 4.6 nM and a Ki of 1.4 nM.

In turn, `Cc1c(O)cccc1C(=O)N[C@@H](Cc1ccccc1)[C@H](O)CN(CC(C)C)S(=O)(=O)c1ccc(F)c(N)c1` [Compound 183] returned an IC50 of 179 nM and a Ki of 56 nM.

Compound `CC(C)CN(C[C@@H](O)[C@H](Cc1ccccc1)NC(=O)O[C@@H]1CC2CCO[C@@H]2C1)NS(=O)(=O)c1ccc(F)c([N+](=O)[O-])c1` (stereo partly shown) [Compound 184] yielded an IC50 of 1200 nM and a Ki of 351 nM.

In the case of `COc1ccc(S(=O)(=O)NN(CC(C)C)C[C@@H](O)[C@H](Cc2ccccc2)NC(=O)O[C@H]2CO[C@H]3OCCC32)cc1` (stereo partly shown) [Compound 185], the IC50 turned out to be 312 nM and affinity was put at a Ki of 97 nM.

With `COc1ccc(S(=O)(=O)NN(CC(C)C)C[C@@H](O)[C@H](Cc2ccccc2)NC(=O)O[C@@H]2CC3CCO[C@@H]3C2)cc1` (stereo partly shown) [Compound 186], the IC50 was 10 nM and the Ki turned out to be 3.2 nM.

`COc1ccc(S(=O)(=O)N(C[C@@H](O)[C@H](Cc2ccccc2)NC(=O)OC(C)(C)C)NC(=O)OC(C)(C)C)cc1` [Compound 187] had an IC50 of 534 nM and a Ki of 166 nM.

`COc1ccc(S(=O)(=O)N(C[C@@H](O)[C@H](Cc2ccccc2)NC(=O)O[C@H]2CO[C@H]3OCCC32)NC(=O)OC(C)(C)C)cc1` (stereo partly shown) [Compound 188] yielded an IC50 of 3.9 nM and a Ki of 1.2 nM.

As for `COc1ccc(S(=O)(=O)N(N)C[C@@H](O)[C@H](Cc2ccccc2)NC(=O)O[C@H]2CO[C@H]3OCCC32)cc1` (stereo partly shown) [Compound 189], the IC50 is 55 nM and the Ki turned out to be 17 nM.

As to `CC(C)(C)OC(=O)NN(C[C@@H](O)[C@H](Cc1ccccc1)NC(=O)O[C@H]1CO[C@H]2OCCC21)S(=O)(=O)c1ccc(F)c(N)c1` (stereo partly shown) [Compound 190], it took 3.5 nM to reach half-maximal inhibition (IC50) and the affinity corresponds to a Ki of 1.1 nM.

Take `CC(C)(C)OC(=O)NN(C[C@@H](O)[C@H](Cc1ccccc1)NC(=O)O[C@@H]1CC2CCO[C@@H]2C1)S(=O)(=O)c1ccc(F)c(N)c1` (stereo partly shown) [Compound 191]: the IC50 stood at 9.6 nM and the Ki was determined as 3 nM.

`COc1ccc(S(=O)(=O)N(C[C@@H](O)[C@H](Cc2ccccc2)NC(=O)O[C@H]2CO[C@H]3OCCC32)C2CN(C(=O)OC(C)(C)C)C2)cc1` (stereo partly shown) [Compound 200] yielded an IC50 of 7.6 nM and a Ki of 2.3 nM.

Compound `COc1ccc(S(=O)(=O)N(C[C@@H](O)[C@H](Cc2ccccc2)NC(=O)O[C@H]2CO[C@H]3OCCC32)C2CN(C)C2)cc1` (stereo partly shown) [Compound 201] gave an IC50 of 5.6 nM and an inhibition constant Ki of 1.7 nM.

With `COc1ccc(S(=O)(=O)N(C[C@@H](O)[C@H](Cc2ccccc2)NC(=O)O[C@@H]2CO[C@@H]3OCC[C@@H]32)C2CN(C)C2)cc1` [Compound 202], the IC50 is 31 nM and the Ki is 9.7 nM.

The compound `COc1ccc(S(=O)(=O)N(C[C@@H](O)[C@H](Cc2ccccc2)NC(=O)O[C@@H]2CC3CCO[C@@H]3C2)C2CN(C)C2)cc1` (stereo partly shown) [Compound 204] showed an IC50 of 5.6 nM and a Ki of 1.7 nM.

`COc1ccc(S(=O)(=O)N(C[C@@H](O)[C@H](Cc2ccccc2)NC(=O)O[C@H]2C[C@H]3CCO[C@H]3C2)C2CN(C)C2)cc1` [Compound 205] yielded an IC50 of 87 nM and a Ki of 27 nM.
